For the assay, the target named is T1, Tyrosinase (Homo sapiens, UniProt P14679).
T1 sequence (P14679 whole entry): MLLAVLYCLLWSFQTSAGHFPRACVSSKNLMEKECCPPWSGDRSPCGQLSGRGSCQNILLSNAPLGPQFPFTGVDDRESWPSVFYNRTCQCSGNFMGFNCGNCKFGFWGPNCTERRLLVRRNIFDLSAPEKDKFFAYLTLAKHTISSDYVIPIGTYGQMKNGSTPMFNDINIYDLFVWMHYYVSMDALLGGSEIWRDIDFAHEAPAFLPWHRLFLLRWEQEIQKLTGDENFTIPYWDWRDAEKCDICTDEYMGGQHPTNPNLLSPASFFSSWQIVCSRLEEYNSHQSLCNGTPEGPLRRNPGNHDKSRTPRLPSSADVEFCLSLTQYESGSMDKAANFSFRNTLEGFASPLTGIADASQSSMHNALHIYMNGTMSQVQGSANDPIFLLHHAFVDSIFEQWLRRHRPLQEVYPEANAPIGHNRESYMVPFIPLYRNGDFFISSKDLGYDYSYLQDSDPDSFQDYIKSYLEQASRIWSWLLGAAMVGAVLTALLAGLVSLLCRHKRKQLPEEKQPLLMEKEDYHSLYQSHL
Nature of the assay: Compound was evaluated for inhibition of tyrosinase enzyme; Not active. Set-up: species or system mushroom.

Take `N[C@@H](Cc1ccccc1)C(=O)O` [PHENYLALANINE]: the IC50 result is listed as “Not Active”.

These data come from ChEMBL document CHEMBL1129764, “Synthesis of N-kojic-amino acid and N-kojic-amino acid-kojiate and their tyrosinase inhibitory activity” (Bioorg Med Chem Lett, 1996).
